Test results reported in patent US6348211B1, “Compositions and methods for treatment of attention deficit disorder and attention deficit/hyperactivity disorder with methylphenidate” (Noven Pharmaceuticals, Inc., priority 1997, dated 2002).

Columns and labels:
[1] = Degradation of methylphenidate in topical composition in the presence of acid functional groups; format: physicochemical; details: with every 1% increase by weight in acid functional component of the topical composition
From the text: It has been discovered that methylphenidate, and in particular the base form, can be unstable and undergoes degradation in the presence of acid functional groups which are contained in adhesives, enhancers, excipients and other components of the topical composition. The major degradant/metabolite appears to be ritalinic acid, which increases about ten fold with every 1% increase by weight in such acid functional component. Such degradation can greatly reduce the amount of the active enantiomer during storage of the topical composition, thus reducing the amount of active methylphenidate available for drug delivery.

[2] = among the four enantiomers of methylphenidate; cited from earlier work

Row | SMILES | increase of major degradant ritalinic acid [1] | activity of enantiomer [2]
1 | COC(=O)C(c1ccccc1)C1CCCCN1 (centres unmarked) [Methylphenidate] | about ten fold | 
2 | COC(=O)[C@H](c1ccccc1)[C@H]1CCCCN1 [d-threo-methylphenidate] |  | significantly active
